This is an account of results in patent publication US7645752B2, “Sulfonyl substituted 1H-indoles as ligands for the 5-hydroxytryptamine receptors” (Wyeth LLC, priority 2006, dated 2010).

One assay deals with T1, human cloned 5-HT6 receptors (Homo sapiens, UniProt P50406).
T1 construct: expressed in transfected cells; host or cells: HeLa cells
T1 sequence (P50406 whole entry): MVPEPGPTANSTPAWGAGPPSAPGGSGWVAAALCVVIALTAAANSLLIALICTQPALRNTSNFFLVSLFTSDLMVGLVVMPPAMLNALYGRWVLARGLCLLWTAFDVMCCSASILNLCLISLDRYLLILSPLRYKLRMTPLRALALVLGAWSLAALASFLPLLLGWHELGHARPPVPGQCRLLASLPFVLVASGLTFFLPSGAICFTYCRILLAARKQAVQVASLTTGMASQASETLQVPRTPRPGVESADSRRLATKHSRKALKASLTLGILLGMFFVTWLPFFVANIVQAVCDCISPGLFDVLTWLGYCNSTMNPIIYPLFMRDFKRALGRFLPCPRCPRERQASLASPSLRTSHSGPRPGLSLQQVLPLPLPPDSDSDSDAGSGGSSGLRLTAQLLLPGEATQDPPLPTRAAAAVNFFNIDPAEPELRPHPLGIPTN
Briefly: 5-HT6 binding affinity, [3H]-LSD displacement on membranes of Hela cells.
Conditions: not given
How it is done:
The affinity of test compounds for the 5-HT6 receptor is evaluated in the following manner. Cultured Hela cells expressing human cloned 5-HT6 receptors are harvested and centrifuged at low speed (1,000×g) for 10.0 min to remove the culture media. The harvested cells are suspended in half volume of fresh physiological phosphate buffered saline solution and recentrifuged at the same speed. This operation is repeated. The collected cells are then homogenized in ten volumes of 50 mM Tris.HCl (pH 7.4) and 0.5 mM EDTA. The homogenate is centrifuged at 40,000×g for 30.0 min and the precipitate is collected. The obtained pellet is resuspended in 10 volumes of Tris.HCl buffer and recentrifuged at the same speed. The final pellet is suspended in a small volume of Tris.HCl buffer and the tissue protein content is determined in aliquots of 10-25 microliter volumes. […] The volume of the suspended cell membranes is adjusted to give a tissue protein concentration of 1.0 mg/mL of suspension. The prepared membrane suspension (10 times concentrated) is aliquoted in 1.0 mL volumes and stored at −70° C. until used in subsequent binding experiments.
Binding experiments are performed in a 96 well microtiter plate format in a total volume of 200 microliters. […] The test compounds are added in 20.0 microliter volume.
The bound complex caught on the filter disk is allowed to air dry and the radioactivity is measured in a Packard TopCount® equipped with six photomultiplier detectors, after the addition of 40.0 microliter Microscint®-20 scintillant to each shallow well.
Binding in the presence of varying concentrations of test compound is expressed as a percentage of specific binding in the absence of test compound. The results are plotted as log % bound versus log concentration of the test compound.
Usually Ki stands for the equilibrium dissociation constant of an inhibitor or competing ligand from its target. Consider `O=S(=O)(c1ccccc1)c1c[nH]c2c(CCNC3CC3)cccc12` [Example 22, N-{2-[3-(phenylsulfonyl)-1H-indol-7-yl]ethyl}cyclopropanamine], for which the Ki came out at 5.5 nM. Compound `CCNCCc1ccc2c(S(=O)(=O)c3ccccc3)c[nH]c2c1` [Example 88, N-ethyl-N-{2-[3-(phenylsulfonyl)-1H-indol-6-yl]ethyl}amine] gave a Ki of 96.3 nM. The same measure, in the same setting: under `NCCc1ccc2[nH]cc(S(=O)(=O)c3ccccc3)c2c1` [Example 12, {2-[3-(phenylsulfonyl)-1H-indol-5-yl]ethyl}amine] stands 7 nM.

Still in this assay, the particulars now being: Table 1; 5-HT6 binding, at 1 micromole; read-out: % inhibition at 1 micromole.
One may read the inhibition as the drop in the measured response relative to a control, in per cent. Regarding `CNCCc1cccc2[nH]cc(S(=O)(=O)c3cccc(F)c3)c12` [Example 63, N-methyl-N-{2-[3-(3-fluorophenylsulfonyl)-1H-indol-4-yl]ethyl}amine], the inhibition at 1 µM is 61%.

On to `O=S(=O)(c1ccccc1)c1c[nH]c2cccc(CCC3CNCCO3)c12` (stereo not shown) [Example 100, 4-(2-morpholin-6-ylethyl)-3-(phenylsulfonyl)-1H-indole], for which the inhibition at 1 µM came out at 54%. The same measure, in the same setting: under `CC(C)(C)CNCCc1cccc2[nH]cc(S(=O)(=O)c3cccc(F)c3)c12` [Example 81, N-(2,2-dimethylpropyl)-N-{2-[3-(3-fluorophenylsulfonyl)-1H-indol-4-yl]ethyl}amine] stands 74%; under `O=S(=O)(c1cccc(F)c1)c1c[nH]c2cccc(CCNC3CC3)c12` [Example 67, N-{2-[3-(3-fluorophenylsulfonyl)-1H-indol-4-yl]ethyl}cyclopropanamine], 77%; under `CCCNCCc1cccc2[nH]cc(S(=O)(=O)c3cccc(F)c3)c12` [Example 65, N-{2-[3-(3-fluorophenylsulfonyl)-1H-indol-4-yl]ethyl}-N-propylamine], 67%.

In the case of `CN(C)CCCNCCc1cccc2[nH]cc(S(=O)(=O)c3cccc(F)c3)c12` [Example 83, N′-{2-[3-(3-Fluorophenylsulfonyl)-1H-indol-4-yl]-ethyl}-N,N-dimethyl-propane-1,3-diamine], the inhibition at 1 µM came out at 42%. On the same count and under the same terms, under `O=S(=O)(c1ccccc1)c1c[nH]c2cc(CCN3CCCC3)ccc12` [Example 98, 3-(phenylsulfonyl)-6-(2-pyrrolidin-1-ylethyl)-1H-indole] stands 76%; under `CC(NCCc1ccc2c(S(=O)(=O)c3ccccc3)c[nH]c2c1)C(C)(C)C` (stereo not shown) [Example 105, N-{2-[3-(phenylsulfonyl)-1H-indol-6-yl]ethyl}-N-(1,2,2-trimethylpropyl)amine], 55%. The same measure, in the same setting: under `O=S(=O)(c1ccccc1)c1c[nH]c2cc(CCNC3CCCC3)ccc12` [Example 93, N-{2-[3-(phenylsulfonyl)-1H-indol-6-yl]ethyl}cyclopentanamine] stands 71%; under `O=S(=O)(c1cccc(F)c1)c1c[nH]c2cccc(CCN3CCOCC3)c12` [Example 76, 4-(2-morpholin-4-ylethyl)-3-(3-fluorophenylsulfonyl)-1H-indole], 62%. Same read-out and setting: the same measure for `CC(C)CNCCc1ccc2c(S(=O)(=O)c3ccccc3)c[nH]c2c1` [Example 102, N-isobutyl-N-{2-[3-(phenylsulfonyl)-1H-indol-6-yl]ethyl}amine]: 72%; for `O=S(=O)(c1ccccc1)c1c[nH]c2cc(CCNC3CCC3)ccc12` [Example 92, N-{2-[3-(phenylsulfonyl)-1H-indol-6-yl]ethyl}cyclobutanamine]: 75%; for `CN(CCO)CCc1cccc2[nH]cc(S(=O)(=O)c3cccc(F)c3)c12` [Example 84, 2-({2-[3-(3-Fluorophenylsulfonyl)-1H-indol-4-yl]-ethyl}-methyl-amino)-ethanol]: 73%. Take `CN(CCc1cccc2[nH]cc(S(=O)(=O)c3cccc(F)c3)c12)C1CCCCC1` [Example 72, N-cyclohexyl-N-methyl-N-{2-[3-(3-fluorophenylsulfonyl)-1H-indol-4-yl]ethyl}amine]: the inhibition at 1 µM was 66%.

The same assay, now with this note: Table 1; [3H]-LSD 3.0 nM, Hela cell membranes; read-out: Ki (nM) @ 5-HT6 receptor.
Take `O=S(=O)(c1ccccc1)c1c[nH]c2c(CCN3CCNCC3)cccc12` [Example 30, 3-(phenylsulfonyl)-7-(2-piperazin-1-ylethyl)-1H-indole]: the Ki was determined as 7.5 nM. The same measure, in the same setting: under `CCN(C)CCc1ccc2[nH]cc(S(=O)(=O)c3ccccc3)c2c1` [Example 7, N-ethyl-N-methyl-N-{2-[3-(phenylsulfonyl)-1H-indol-5-yl]ethyl}amine] stands 7 nM; under `NCCc1cccc2[nH]cc(S(=O)(=O)c3cccc(F)c3)c12` [Example 85, {2-[3-(3-fluorophenylsulfonyl)-1H-indol-4-yl]ethyl}amine], 348 nM; under `NCCc1cccc2c(S(=O)(=O)c3ccccc3)c[nH]c12` [Example 29, {2-[3-(phenylsulfonyl)-1H-indol-7-yl]ethyl}amine], 1.5 nM. On the same count and under the same terms, the same measure for `O=S(=O)(c1ccccc1)c1c[nH]c2ccc(CCNC3CCCC3)cc12` [Example 5, N-{2-[3-(phenylsulfonyl)-1H-indol-5-yl]ethyl}cyclopentanamine]: 37 nM; for `O=S(=O)(c1ccccc1)c1c[nH]c2c(CCNC3CCCC3)cccc12` [Example 23, N-{2-[3-(phenylsulfonyl)-1H-indol-7-yl]ethyl}cyclopentanamine]: 18 nM; for `CCC(C)CNCCc1cccc2[nH]cc(S(=O)(=O)c3cccc(F)c3)c12` (stereo not shown) [Example 79, {2-[3-(3-Fluorophenylsulfonyl)-1H-indol-4-yl]-ethyl}-(2-methyl-butyl)-amine]: 120 nM. On the same count and under the same terms, under `CC(C)NCCc1cccc2c(S(=O)(=O)c3ccccc3)c[nH]c12` [Example 21, N-{2-[3-(phenylsulfonyl)-1H-indol-7-yl]ethyl}propan-2-amine] stands 9.4 nM; under `CNCCc1ccc2c(S(=O)(=O)c3ccccc3)c[nH]c2c1` [Example 87, N-methyl-N-{2-[3-(phenylsulfonyl)-1H-indol-6-yl]ethyl}amine], 10.5 nM; under `CCN(CC)CCc1ccc2[nH]cc(S(=O)(=O)c3ccccc3)c2c1` [Example 8, N,N-diethyl-N-{2-[3-(phenylsulfonyl)-1H-indol-5-yl]ethyl}amine], 17 nM. `O=S(=O)(c1ccccc1)c1c[nH]c2c(CCN3CCCCC3)cccc12` [Example 27, 3-(phenylsulfonyl)-7-(2-piperidin-1-ylethyl)-1H-indole]: the Ki stood at 13 nM.

For the compound `O=S(=O)(c1cccc(F)c1)c1c[nH]c2cccc(CCNC3CCCC3)c12` [Example 69, N-{2-[3-(3-fluorophenylsulfonyl)-1H-indol-4-yl]ethyl}cyclopentanamine], the inhibition constant Ki was 78 nM. Same read-out and setting: the same measure for `CCC(CC)NCCc1cccc2[nH]cc(S(=O)(=O)c3cccc(F)c3)c12` [Example 78, (1-Ethyl-propyl)-{2-[3-(3-fluorophenylsulfonyl)-1H-indol-4-yl]-ethyl}-amine]: 80 nM. Consider `O=S(=O)(c1cccc(F)c1)c1c[nH]c2cccc(CCNC3CCCCC3)c12` [Example 70, N-{2-[3-(3-fluorophenylsulfonyl)-1H-indol-4-yl]ethyl}cyclohexanamine], for which the inhibition constant Ki is 180 nM. Still for that read-out and setting: the same measure for `CN(C)CCc1ccc2[nH]cc(S(=O)(=O)c3ccccc3)c2c1` [Example 1, N,N-dimethyl-N-{2-[3-(phenylsulfonyl)-1H-indol-5-yl]ethyl}amine]: 9 nM; for `CCN(CC)CCc1cccc2c(S(=O)(=O)c3ccccc3)c[nH]c12` [Example 25, N,N-diethyl-N-{2-[3-(phenylsulfonyl)-1H-indol-7-yl]ethyl}amine]: 21 nM; for `CC(C)CNCCc1cccc2[nH]cc(S(=O)(=O)c3cccc(F)c3)c12` [Example 77, N-isobutyl-N-{2-[3-(3-fluorophenylsulfonyl)-1H-indol-4-yl]ethyl}amine]: 14 nM. On the same count and under the same terms, the same measure for `CN(C)CCc1cccc2c(S(=O)(=O)c3ccccc3)c[nH]c12` [Example 18, N,N-dimethyl-N-{2-[3-(phenylsulfonyl)-1H-indol-7-yl]ethyl}amine]: 2.3 nM.

On to `CCCNCCc1ccc2c(S(=O)(=O)c3ccccc3)c[nH]c2c1` [Example 89, N-{2-[3-(phenylsulfonyl)-1H-indol-6-yl]ethyl}-N-propylamine], for which the Ki was found to be 150 nM.

Turning to `O=S(=O)(c1ccccc1)c1c[nH]c2ccc(CCN3CCCCC3)cc12` [Example 10, 3-(phenylsulfonyl)-5-(2-piperidin-1-ylethyl)-1H-indole], the Ki was 10.3 nM. For `O=S(=O)(c1cccc(F)c1)c1c[nH]c2cccc(CCNC3CCC3)c12` [Example 68, N-{2-[3-(3-fluorophenylsulfonyl)-1H-indol-4-yl]ethyl}cyclobutanamine], the Ki worked out at 23.5 nM.

Take `O=S(=O)(c1ccccc1)c1c[nH]c2cc(CCN3CCC3)ccc12` [Example 108, 6-(2-Azetidin-1-yl-ethyl)-3-phenylsulfonyl-1H-indole]: the Ki turned out to be 74 nM. Same read-out and setting: the same measure for `CCN(CC)CCc1ccc2c(S(=O)(=O)c3ccccc3)c[nH]c2c1` [Example 97, N,N-diethyl-N-{2-[3-(phenylsulfonyl)-1H-indol-6-yl]ethyl}amine]: 12.3 nM.
